In patent publication US8809336B2, “Ortho-condensed pyridine and pyrimidine derivatives (e.g., purines) as protein kinases inhibitors” (Astex Therapeutics Limited, priority 2004, dated 2014):
Like-named read-outs stand apart in the source and are kept apart here.

Key:
[1] = molecular target: T1, PKB-PIF fusion protein (Homo sapiens, UniProt P31751); assay: Measurement of PKB kinase inhibitory activity (IC50), 33P-ATP phosphocellulose filter assay; type: biochemical
T1 construct: PIF (fusion partner); made in house
T1 sequence (P31751 with tags, fused parts or gaps limits assumed): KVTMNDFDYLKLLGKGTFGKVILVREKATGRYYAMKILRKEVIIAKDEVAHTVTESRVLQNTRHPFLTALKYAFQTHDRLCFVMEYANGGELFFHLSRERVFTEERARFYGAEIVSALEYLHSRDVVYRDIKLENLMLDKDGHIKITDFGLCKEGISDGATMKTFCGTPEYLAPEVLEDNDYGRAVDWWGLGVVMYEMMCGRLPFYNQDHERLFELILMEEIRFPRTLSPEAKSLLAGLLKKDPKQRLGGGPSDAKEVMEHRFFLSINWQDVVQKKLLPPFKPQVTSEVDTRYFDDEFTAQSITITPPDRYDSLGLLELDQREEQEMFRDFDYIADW
Procedure: The inhibition of protein kinase B (PKB) activity by compounds can be determined essentially as described by Andjelkovic et al. (Mol. Cell. Biol. 19, 5061-5072 (1999)) but using a fusion protein described as PKB-PIF and described in full by Yang et al (Nature Structural Biology 9, 940-944 (2002)). […] A final concentration of 0.6 nM enzyme is used in a buffer that includes 20 mM MOPS pH 7.2, 30 μM ATP/γ^33P-ATP and 25 μM substrate.
Compounds are added in DMSO solution to a final DMSO concentration of 2.5%. The reaction is allowed to proceed for 20 minutes before addition of excess orthophosphoric acid to quench activity. The reaction mixture is transferred to a phosphocellulose filter plate where the peptide binds and the unused ATP is washed away. After washing, scintillant is added and the incorporated activity measured by scintillation counting.
The % inhibition of the PKB activity is calculated and plotted in order to determine the concentration of test compound required to inhibit 50% of the PKB activity (IC50).

[2] = molecular target: T2, PKA catalytic domain (Homo sapiens, UniProt P17612); assay: Measurement of PKA kinase inhibitory activity (IC50), 33P-ATP filter plate assay; type: biochemical
T2 construct: using the PKA catalytic domain from Upstate Biotechnology (#14-440); purchased Upstate Biotechnology 14-440
Procedure: A final concentration of 1 nM enzyme is used in a buffer that includes 20 mM MOPS pH 7.2, 40 μM ATP/γ^33P-ATP and […] substrate. Compounds are added in dimethylsulphoxide (DMSO) solution to a final DMSO concentration of 2.5%. The reaction is allowed to proceed for 20 minutes before addition of excess orthophosphoric acid to quench activity. Unincorporated γ^33P-ATP is then separated from phosphorylated proteins on a Millipore MAPH filter plate. The plates are washed, scintillant is added and the plates are then subjected to counting on a Packard Topcount.

[3] = 0.6 nM enzyme, 30 μM ATP, 25 μM AKTide-2T substrate, 20 minutes, read-out: IC50, inhibition of PKB activity
[4] = 1 nM enzyme, 40 μM ATP, 20 minutes, read-out: IC50, inhibition of PKA activity

Row | Compound | IC50 [1, 3] [µM] | IC50 [2, 4] [µM] | IC50 [1] [µM] | IC50 [2] [µM]
1 | NC1CCN(c2ccnc3[nH]ccc23)CC1 [Example 13, 1-(1H-Pyrrolo[2,3-b]pyridin-4-yl)-piperidin-4-ylamine] | < 10 | < 10 | – | –
2 | NCC1(c2ccc(Cl)cc2)CCN(c2ncnc3[nH]ccc23)CC1 [Example 14, C-[4-(4-Chloro-phenyl)-1-(7H-pyrrolo[2,3-d]pyrimidin-4-yl)-piperidin-4-yl]-methylamine] | < 10 | < 10 | – | –
3 | NC1(Cc2ccc(Cl)cc2)CCN(c2ncnc3[nH]cnc23)CC1 [Example 18, 4-(4-Chlorobenzyl)-1-(9H-purin-6-yl)piperidin-4-yl amine] | < 10 | < 10 | – | –
4 | NCC1(Cc2ccc(Cl)cc2)CCN(c2ncnc3[nH]ccc23)CC1 [Example 19, C-[4-(4-Chlorobenzyl)-1-(7H-pyrrolo[2,3-d]pyrimidin-4-yl)piperidin-4-yl]methylamine] | < 10 | < 10 | – | –
5 | NCC1(c2ccc(Cl)cc2)CCN(c2ncnc3[nH]c(=O)[nH]c23)CC1 [Example 20, 6-[4-Aminomethyl-4-(4-chlorophenyl)piperidin-1-yl]-7,9-dihydropurin-8-one] | < 10 | < 10 | – | –
6 | NC1(c2ccc(Cl)cc2)CCN(c2ncnc3[nH]ccc23)CC1 [Example 25, 4-(4-Chlorophenyl)-1-(7H-pyrrolo[2,3-d]pyrimidin-4-yl)piperidin-4-ylamine] | – | – | < 10 | < 10
7 | NCC1(c2cccc(Cl)c2)CCN(c2ncnc3[nH]ccc23)CC1 [Example 26, C-[4-(3-Chlorophenyl)-1-(7H-pyrrolo[2,3-d]pyrimidin-4-yl)piperidin-4-yl]methylamine] | < 10 | < 10 | – | –
8 | NCC1(c2ccc(Cl)c(Cl)c2)CCN(c2ncnc3[nH]ccc23)CC1 [Example 28, C-[4-(3,4-Dichlorophenyl)-1-(7H-pyrrolo[2,3-d]pyrimidin-4-yl)piperidin-4-yl]methylamine] | < 10 | < 10 | – | –
9 | NCC1(c2ccc(OC(F)(F)F)cc2)CCN(c2ncnc3[nH]cnc23)CC1 [Example 31, C-[1-(9H-Purin-6-yl)-4-(4-trifluoromethoxyphenyl)piperidin-4-yl]methylamine] | < 10 | < 10 | – | –
10 | NCC1(c2ccc(C(F)(F)F)cc2)CCN(c2ncnc3[nH]ccc23)CC1 [Example 32, C-[1-(7H-Pyrrolo[2,3-d]pyrimidin-4-yl)-4-(4-trifluoromethylphenyl)piperidin-4-yl]methylamine] | < 10 | < 10 | – | –
11 | COc1ccc(C2(CN)CCN(c3ncnc4[nH]ccc34)CC2)cc1 [Example 38, C-[4-(4-Methoxyphenyl)-1-(7H-pyrrolo[2,3-d]pyrimidin-4-yl)piperidin-4-yl]methylamine] | < 10 | < 10 | – | –
12 | NCC1(c2ccc(OCc3ccccc3)cc2)CCN(c2ncnc3[nH]ccc23)CC1 [Example 40, C-[4-(4-Benzyloxyphenyl)-1-(7H-pyrrolo[2,3-d]pyrimidin-4-yl)piperidin-4-yl]methylamine] | < 10 | < 10 | – | –
13 | CNCC1(c2ccc(Cl)cc2)CCN(c2ncnc3[nH]ccc23)CC1 [Example 42, [4-(4-Chloro-phenyl)-1-(7H-pyrrolo[2,3-d]pyrimidin-4-yl)-piperidin-4-ylmethyl]-methyl-amine] | – | – | < 10 | < 10
14 | CN(C)C1(Cc2ccc(Cl)cc2)CCN(c2ncnc3[nH]ccc23)CC1 [Example 44, [4-(4-Chlorobenzyl)-1-(7H-pyrrolo[2,3-d]pyrimidin-4-yl)-piperidin-4-yl]-dimethylamine] | < 10 | < 10 | – | –
